Source: ChEMBL document CHEMBL5149985, “Discovery of cytotoxic natural products from Red Sea sponges: Structure and synthesis” (Eur J Med Chem, 2021)

Assays:
HeLa = test: Anticancer activity against human HeLa cells assessed as inhibition of cell growth; assay type: functional, cell-based
KB 3-1 = test: Anticancer activity against human KB 3-1 cells assessed as inhibition in cell growth; assay type: functional, cell-based
HCT-116 [1] = test: Anticancer activity against human HCT-116 cells assessed as inhibition of cell growth incubated for 72 hrs by SRB assay; assay type: functional, cell-based; details: HCT-116, 72 h
MCF7 [2] = test: Anticancer activity against human MCF7 cells assessed as inhibition of cell growth incubated for 72 hrs by SRB assay; assay type: functional, cell-based; details: MCF7, 72 h
HepG2 [3] = test: Anticancer activity against human HepG2 cells assessed as inhibition of cell growth incubated for 72 hrs by SRB assay; assay type: functional, cell-based; details: HepG2, 72 h
MDA-MB-231 [4] = test: Anticancer activity against human MDA-MB-231 cells assessed as inhibition of cell growth incubated for 72 hrs by MTT assay; assay type: functional, cell-based; details: MDA-MB-231, 72 h
[5] = Inhibition of actin (unknown origin) polymerization incubated for 20 mins in presence of ATP by ELISA analysis; set-up: species or system Homo sapiens
Homo sapiens = species on record: Homo sapiens; test: Inhibition of actin (unknown origin) polymerization at 1 uM incubated for 20 mins in presence of ATP by ELISA analysis relative to control
[6] = Inhibition of actin (unknown origin) polymerization at 100 nM incubated for 20 mins in presence of ATP by ELISA analysis relative to control; details: Homo sapiens
HCT-116 [7] = test: cells; details: Homo sapiens
Description: Anticancer activity against human HCT-116 cells assessed as inhibition of cell growth by MTT assay

HepG2 [8] = test: cells; details: Homo sapiens
Description: Anticancer activity against human HepG2 cells assessed as inhibition of cell growth by MTT assay

P388 = test: Anticancer activity against mouse P388 cells assessed as cell growth inhibition; assay type: functional, cell-based
HT-29 = test: Anticancer activity against human HT-29 cells assessed as cell growth inhibition; assay type: functional, cell-based
A549 = test: Anticancer activity against human A549 cells assessed as cell growth inhibition; assay type: functional, cell-based
MCF7 [9] = test: Anticancer activity against human MCF7 cells assessed as inhibition of cell growth incubated for 72 hrs by MTT assay; assay type: functional, cell-based; details: MCF7, 72 h
MDA-MB-231 [10] = test: Anticancer activity against human MDA-MB-231 cells assessed as cell viability measured after 24 hrs by MTT assay; assay type: functional, cell-based; details: MDA-MB-231, 24 h

NC(=O)C[C@@]1(O)C=C(Cl)C(=O)C(Br)=C1
IC50 (HeLa): 0.0178 µM

CC(C)=CCC[C@@]1(C)C(CC[C@H]2[C@]3(C)CC[C@H](O)C(C)(C)O[C@H]3CC[C@@]2(C)O)=C(C)CC[C@H]1O [SIPHONELLINOL D]
IC50 (KB 3-1): 0.0042 µM

CC(=O)O[C@@H]1C[C@@H]2[C@@]3(C)CCCC(C)(C)[C@@H]3CC[C@@]2(C)[C@@H]2CC=C3C(=O)OCC3[C@@]12C (stereo not given in full)
IC50 (HCT-116 [1]): 15.4 µM
IC50 (MCF7 [2]): 20.9 µM
IC50 (HepG2 [3]): 15.5 µM

CO[C@]1([C@@H]2CSC(=O)N2)C[C@H]2C[C@@H](CC[C@H](C)/C=C\C=C\CC/C(C)=C\C(=O)O2)O1
IC50 (MDA-MB-231 [4]): 23.4 µM
IC50 [5]: 9.23 µM
inhibition (Homo sapiens): 21%
inhibition [6]: 6%

CO[C@H]1C[C@H]2[C@]3(C)CC[C@H]4C(C)(C)CCC[C@]4(C)[C@H]3C[C@@H](OC(C)=O)[C@]2(C)C2=C1[C@@H](O)OC2=O
IC50 (HCT-116 [1]): 22.5 µM
IC50 (MCF7 [2]): 40.3 µM
IC50 (HepG2 [3]): 42.5 µM

CC(=O)O[C@H]1C[C@H]2[C@@](C)(CC[C@H]3C(C)(C)CCC[C@]23C)[C@@H]2CC=C(C(C)=O)C[C@]21C
IC50 (HCT-116 [7]): 0.0018 µM
IC50 (HepG2 [8]): 0.0044 µM

C#C/C=C\CCCCC#CC#CC#CCCC/C=C\C#CCO [DEHYDROISOPHONOCHALYNOL]
IC50 (P388): 0.0073 µM
IC50 (HeLa): 0.0169 µM

CC(=O)O[C@@H]1C[C@@H]2[C@@]3(C)CCCC(C)(C)[C@@H]3CC[C@@]2(C)[C@@H]2C[C@H](O)C3=C([C@H](O)OC3=O)[C@@]12C
IC50 (HCT-116 [1]): 57.5 µM
IC50 (MCF7 [2]): 32.6 µM
IC50 (HepG2 [3]): 21.8 µM

CC(=O)CCCC(C)(C)C(=O)CC/C(C)=C/CC[C@@]1(C)CC[C@H]([C@H](C)C(=O)O)OO1 [AIKUPIKOXIDE A]
IC50 (P388): ≥ 1 µg/mL
IC50 (HT-29): ≥ 1 µg/mL
IC50 (A549): ≥ 1 µg/mL

C#C/C=C\CCCC/C=C\C#CC#CCCC/C=C\C#CCO [CALLYSPONGENOL C]
IC50 (P388): 0.0072 µM
IC50 (HeLa): 0.0128 µM

C=C1CCCC(C)(C)C1(O)CCC[C@@]1(C)CC[C@@H]([C@H](C)C(=O)OC)OO1 (stereo not given in full)
IC50 (P388): ≥ 1 µg/mL
IC50 (HT-29): ≥ 1 µg/mL
IC50 (A549): ≥ 1 µg/mL

CO[C@H]1NC(=O)C2=C1[C@H](O)C[C@H]1[C@]3(C)CC[C@H]4C(C)(C)CCC[C@]4(C)[C@H]3C[C@@H](OC(C)=O)[C@]21C
IC50 (HCT-116 [1]): 26.5 µM
IC50 (MCF7 [2]): 55.4 µM
IC50 (HepG2 [3]): 25.4 µM

CC1(C)CCC[C@]2(C)[C@H]3C[C@@H](O)[C@]4(C)[C@H](C=O)C(C=O)=CC[C@H]4[C@]3(C)CC[C@@H]12
IC50 (HCT-116 [1]): 3.4 µM
IC50 (MCF7 [2]): 3.3 µM
IC50 (HepG2 [3]): 1.7 µM

CO[C@]1([C@@H]2CSC(=O)N2C(=O)c2ccccc2)C[C@H]2C[C@@H](CC[C@H](C)/C=C\C=C\CC/C(C)=C\C(=O)O2)O1
IC50 (MDA-MB-231 [4]): 4.48 µM
IC50 (MCF7 [9]): 0.55 µM
IC50 [5]: 0.834 µM
inhibition (Homo sapiens): 53%
inhibition [6]: 17%

CC1=C(CC[C@H]2[C@]3(C)CC[C@H](O)C(C)(C)O[C@H]3CC[C@]2(C)O)[C@@H]2[C@H](CC1=O)[C@@](C)(O)CCC2(C)C [SIPHOLENOL K]
IC50 (KB 3-1): 0.0071 µM

CO[C@]1([C@@H]2CSC(=O)N2C2CCCC2)C[C@H]2C[C@@H](CC[C@H](C)/C=C\C=C\CC/C(C)=C\C(=O)O2)O1
IC50 (MDA-MB-231 [4]): 5.07 µM
IC50 (MCF7 [9]): 5.3 µM
IC50 [5]: 1.05 µM
inhibition (Homo sapiens): 49%
inhibition [6]: 20%

CCSc1ccc(/C=C2\NC(=O)NC2=O)cc1
IC50 (MDA-MB-231 [10]): 43.4 µM

CC(=O)O[C@H]1C[C@H]2[C@]3(C)CC[C@H]4C(C)(C)CCC[C@]4(C)[C@H]3C[C@@H](O)[C@]2(C)C2=C1C(O)OC2=O (stereo not given in full)
IC50 (HCT-116 [1]): 3.5 µM
IC50 (MCF7 [2]): 12.7 µM
IC50 (HepG2 [3]): 9.6 µM

CC(=O)O[C@H]1C[C@H]2[C@]3(C)CC[C@H]4C(C)(C)CCC[C@]4(C)[C@H]3C[C@@H](O)[C@]2(C)C2=C1COC2=O [SESTERSTATIN 7]
IC50 (HCT-116 [1]): 26.1 µM
IC50 (MCF7 [2]): 24 µM
IC50 (HepG2 [3]): 19.2 µM

C/C1=C/C(=O)O[C@@H]2C[C@@H](CC[C@H](C)/C=C\C=C\CC1)O[C@@](O)([C@@H]1CSC(=O)N1)C2 [LATRUNCULIN A]
IC50 (MDA-MB-231 [4]): 4.19 µM
IC50 (MCF7 [9]): 0.48 µM
IC50 [5]: 0.284 µM
inhibition (Homo sapiens): 70%
inhibition [6]: 30%

CCN1C(=O)SC[C@H]1[C@@]1(O)C[C@H]2C[C@@H](CC[C@H](C)/C=C\C=C\CC/C(C)=C\C(=O)O2)O1
IC50 (MDA-MB-231 [4]): 7.19 µM
IC50 (MCF7 [9]): 0.95 µM
IC50 [5]: 0.283 µM
inhibition (Homo sapiens): 70%
inhibition [6]: 31%

CC1=C(CC[C@H]2[C@]3(C)CC[C@H](O)C(C)(C)O[C@H]3CC[C@@]2(C)O)[C@](C)(C/C=C/C(C)(C)OO)[C@H](O)CC1
IC50 (KB 3-1): 0.0039 µM

CC1(C)CCC[C@]2(C)[C@H]3C[C@@H](O)[C@]4(C)[C@@H](C=O)C(C=O)=CC[C@H]4[C@]3(C)CC[C@@H]12
IC50 (HCT-116 [1]): 27.1 µM
IC50 (MCF7 [2]): 36 µM
IC50 (HepG2 [3]): 23.4 µM
